Data on three compounds can be found in patent publication US10940188B2, “Compounds and methods for treatment and prevention of Flavivirus infection” (priority 2016, dated 2021).

For orientation: IC50 means the point on the concentration scale where inhibition reaches its midpoint.

The conditions of data set [1]: oral, BID, ×4 days, cited from earlier work.
The subject of data set [2] is ZIKV production from SNB-19 cells. Kind of data set: Infectious ZIKV production from SNB-19 cells, focus-forming unit assay on Vero cells. Type of data set: cell-based, Zika virus. How it is done: FIGS. 2A-1, 2A-2, 2B-1, 2B-2, 2C-1, 2C-2, 2D-1, 2D-2, 2D-3, 2E-1, 2E-2, and 2F. […] Screening of select compounds for antiviral activity against ZIKV infection was carried out. Glioblastoma SNB-19 cells were treated with indicated compound at 10×AC50 (determined in the primary caspase screen) for 1 hour prior to inoculation with FSS-13025 (at MOI=1). Cells were harvested 24 hours post infection and analyzed by Western blot for ZIKV-NS1 or GAPDH (FIGS. 2A-1 and 2A-2). Titration of PHA-690509 on glioblastoma cells for anti-ZIKV activity. Three strains of virus (FSS-13025, PRVABC59, and MR766; MOI=1) were tested. Shown are sample western blot images (FIG. 2B-1) and ImageJ quantification (FIG. 2B-2). Values represent mean±s.d. (n=3; ***P<0.001; One-way ANOVA). Titration of Emricasan on SNB-19 cells for anti-ZIKV activity was conducted similarly (FIGS. 2C-1 and 2C-2). Values represent mean±s.d. […] Sample western blot (FIG. 2D-2) and ImageJ quantification (FIG. 2D-3) are shown for infection with the PRVABC59 strain (MOI=1). Results for additional strains are shown in FIGS. 6A-F. Values represent mean±s.d. […] The concentration of NS1 in the medium of infected SNB-19 cells collected 24 hours post-infection was quantified by a ZIKV-NS1 ELISA kit (FIGS. 2E-1 and 2E-2). […] Cell culture supernatant was collected 24 hours after infection, and infectious virions were quantified for focus-forming units (FFU) using Vero cells. […] Curves represent best fits for calculating IC50 values, and the insets report the calculated IC50 value for each compound.
FIGS. 18A, 18B, 18C-1, 18C-2, 18D, 18E, 18F, 18G-1, and 18G-2. […] 24 hours post infection, supernatants from SNB-19 cells were titrated onto naïve vero cells plated in a monolayer in 96-well plates for infectious focus-forming unit assay as previously described and focus forming units quantified. […] Immunofluorescence (IF) staining (FIG. 18C-1) and quantification (FIG. 18C-2) of ZIKV positive SNB-19 cells following infection with one of three ZIKV strains and treatment with emetine at 0.01, 0.1, or 1 μM. […]
FIG. 21. […] IC50's calculated using graphpad PRISM software. […]

The next data set concerns HEK293 cells. Kind of data set: Toxicity IC50 (cell-killing activity) of the NS1 TR-FRET screen. Type of data set: cell-based, human. The following applies: cell-killing activity. (In general: Time-resolved FRET reads energy transfer from a long-lived donor to a nearby acceptor.)

SMILES strings stand for the structures.

As for `C[C@H](NC(=O)C(=O)Nc1ccccc1C(C)(C)C)C(=O)N[C@@H](CC(=O)O)C(=O)COc1c(F)c(F)cc(F)c1F` [Emricasan], the “maximum (Cmax) concentration in human blood” value in data set [1] is 2.36 µg/mL. The Cmax in data set [1] (read-out: maximum (Cmax) concentration in human blood, value in brackets) was 4.15 µM.

In the case of `O=C(Nc1ccc([N+](=O)[O-])cc1Cl)c1cc(Cl)ccc1O` [Niclosamide], in data set [2], the “potency on inhibition of ZIKV replication” value was “submicromolar range”.

Regarding `CC[C@H]1CN2CCc3cc(OC)c(OC)cc3[C@@H]2C[C@@H]1C[C@H]1NCCc2cc(OC)c(OC)cc21` [Emetine], the “Tox IC50” value with HEK293 cells is recorded as “No”. In addition, the IC50 in data set [2] (Zika virus, SNB-19 cells, each of three ZIKV strains, read-out: IC50 of infectious ZIKV production) was ≤ 0.01 µM.
